Like-named read-outs stand apart in the source and are kept apart here.
Key:
Tau = target: T1, Tau (Homo sapiens, UniProt P10636); assay: Tau aggregation inhibition in Tau-BiFC cell model (Forskolin-induced); type: cell-based
T1 construct: BiFC fluorescent-protein fragments (two complementary halves on two tau copies); expressed in transfected cells
Description: To screen for new tau aggregation inhibitors, a Tau-BiFC cell model that facilitates observation of tau oligomer formation in living cells was used. Tau-BiFC cells were dispensed into a 384-well plate, and the next day, the compounds prepared according to Examples 1 to 46 were treated at concentrations of 1, 3, and 10 µM, respectively, together with Forskolin (treatment concentration 30 µM), which is a compound that induces tau aggregation by activating the tau phosphorylation enzyme PKA. After 48 hours, nuclei within cells were stained using Hoechst (treatment concentration 2 µg/mL), and BiFC fluorescence intensity was automatically quantified using Operetta (Perkin Elmer) to count the stained nuclei in each well from the entire plate. The group treated only with Forskolin, which induces tau aggregation, was set as the reference point with 100% tau aggregation state, and the effect was confirmed by the formula "BiFC fluorescence intensity by the compounds synthesized according to the Examples of the disclosure/(fluorescence intensity of the control group treated only with Forskolin that induces tau aggregation - fluorescence intensity of the untreated control group) × 100". In addition, the degree of cytotoxicity induced by the newly synthesized compounds was also calculated using the formula "(number of stained nuclei in the compound-treated group/number of stained nuclei in the Forskolin-treated group) × 100", with the group treated only with Forskolin as the reference point at 100% viability. From the treatment results, substances that inhibit intracellular tau aggregation were identified through screening from a series of candidates based on the criteria of 70% or more tau aggregation inhibition and 100% cell viability at a compound treatment concentration of 10 µM.
To confirm the tau aggregation inhibitory effect according to the concentration of the compounds screened in Experimental Example 1, the screened compounds were treated to Tau-BiFC cells at concentrations of 0.03, 0.1, 0.3, 1, 3, 10, and 30 µM, respectively, together with Forskolin (treatment concentration 30 µM), which is a tau aggregation-inducing substance. After 48 hours, cell images were examined to analyze the tau aggregation reaction and degree of cytotoxicity. The IC50 and toxicity of the compounds were analyzed by nonlinear regression analysis using Prism software (GraphPad). The calculated results for representative compounds are shown in Table 3 below: Tau aggregation inhibitory effect and cell viability of novel compounds.

CYP1A2 = target: T2, CYP1A2 (Homo sapiens, UniProt P05177); assay: CYP isoenzyme activity inhibition in human liver microsomes, CYP1A2; type: in vitro ADME; details: 10 µM compound; human liver microsomes 0.25 mg/mL; relative to control without compound
T2 construct: human liver microsomes (0.25 mg/mL); from tissue; host or cells: human liver microsomes
T2 sequence (P05177 1-516): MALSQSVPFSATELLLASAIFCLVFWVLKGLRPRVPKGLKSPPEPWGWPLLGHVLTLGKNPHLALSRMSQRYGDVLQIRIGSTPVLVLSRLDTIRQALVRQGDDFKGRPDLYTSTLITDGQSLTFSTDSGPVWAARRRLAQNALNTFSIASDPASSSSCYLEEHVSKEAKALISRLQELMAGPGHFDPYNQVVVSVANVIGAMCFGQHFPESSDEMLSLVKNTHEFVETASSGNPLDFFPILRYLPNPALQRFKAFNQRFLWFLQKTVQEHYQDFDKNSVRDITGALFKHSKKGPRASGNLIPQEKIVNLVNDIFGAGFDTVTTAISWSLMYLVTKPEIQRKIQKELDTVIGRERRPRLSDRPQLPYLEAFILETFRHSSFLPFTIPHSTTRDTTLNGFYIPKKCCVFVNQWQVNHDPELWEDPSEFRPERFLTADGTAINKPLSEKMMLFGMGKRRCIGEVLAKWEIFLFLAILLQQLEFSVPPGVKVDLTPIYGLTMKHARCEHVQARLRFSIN
Description: The CYP isoenzyme activity inhibitory effect by the compounds prepared according to Examples 1 to 46 was confirmed. Specifically, human liver microsomes (0.25 mg/mL), 0.1 M phosphate buffer solution (pH 7.4), a substrate drug cocktail of five drug metabolizing enzymes (Phenacetin 50 µM, Diclofenac 10 µM, S-mephenytoin 100 µM, Dextromethorphan 5 µM, and Midazolam 2.5 µM), and the compounds were added at concentrations of 0 or 10 µM, respectively, and pre-incubated at 37°C for 5 minutes, and then NADPH generation system solution was added and incubated at 37°C for an additional 15 minutes. Thereafter, an acetonitrile solution containing an internal standard (Terfenadine) was added to terminate the reaction, and after centrifugation for 5 minutes (14,000 rpm, 4°C), the supernatant was injected into an LC-MS/MS system to simultaneously analyze the metabolites of the substrate drugs, thereby evaluating the drug metabolizing enzyme inhibitory activity.
The metabolites of each CYP isoenzyme marker drug generated through the reaction were analyzed using a Shimadzu Nexera XR system and TSQ vantage (Thermo). A Kinetex C18 (2.1 × 100 mm, 2.6 µm, particle size; Phenomenex, USA) was used as the HPLC column, and (A) distilled water containing 0.1% formic acid and (B) acetonitrile containing 0.1% formic acid were used as mobile phases, and a gradient program as shown in Table 6 below was applied.
The generated metabolites were quantified using MRM (Multiple Reaction Monitoring) quantitative mode, and Xcalibur (version 1.6.1) was used for data analysis. To show the CYP isoenzyme activity inhibitory effect of the novel compounds prepared according to the Examples of the disclosure, the % activity of CYP isoenzymes relative to the control group without compound addition is shown in Table 6 below. Additionally, to confirm the difference in effect according to substituents, Comparative Compounds 1 and 5, which are two compounds that share a similar parent nucleus structure with Compounds 1 to 46 of the disclosure while Cy is substituted with aromatic heteroaryl instead of saturated heterocyclyl, were selected as comparative compounds and their activities are shown together.

T1 sequence (P10636 1-441 isoform P10636-8): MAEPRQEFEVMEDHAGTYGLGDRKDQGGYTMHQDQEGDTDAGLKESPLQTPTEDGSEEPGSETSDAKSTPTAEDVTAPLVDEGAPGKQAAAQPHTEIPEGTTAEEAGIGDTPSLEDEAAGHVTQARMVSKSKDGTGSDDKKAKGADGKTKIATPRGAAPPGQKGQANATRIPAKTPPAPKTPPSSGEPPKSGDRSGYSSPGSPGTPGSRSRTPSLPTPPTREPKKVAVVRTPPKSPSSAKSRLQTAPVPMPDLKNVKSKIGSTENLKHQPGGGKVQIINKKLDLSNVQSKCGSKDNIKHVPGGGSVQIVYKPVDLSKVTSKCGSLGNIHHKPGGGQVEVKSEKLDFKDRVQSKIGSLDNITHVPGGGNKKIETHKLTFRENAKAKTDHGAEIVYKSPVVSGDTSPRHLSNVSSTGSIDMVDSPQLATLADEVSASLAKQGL

| SMILES | IC50 (Tau) [nM] | CYP1A2 (% activity) (CYP1A2) | IC50 (Tau; read-out: Tau aggregation inhibitory effect IC50, Tau-BiFC cell line, Forskolin 30 µM, 48 hours, 0.03-30 µM) [nM] |
| --- | --- | --- | --- |
| N#CC(C#N)=NNc1ccc2nc(N3CCOCC3)sc2c1 [Compound 2, (2-morpholinobenzo[d]thiazol-6-yl)carbonohydrazonoyl dicyanide] | 4 | 81.7 | – |
| N#CC(C#N)=NNc1ccc2nc(N3C4CCC3COC4)sc2c1 [Compound 11, (2-(3-oxa-8-azabicyclo[3.2.1]octan-8-yl)benzo[d]thiazol-6-yl)carbonohydrazonoyl dicyanide] | 32 | 83.7 | – |
| CC(C)N1CCN(c2nc3ccc(NN=C(C#N)C#N)cc3o2)CC1 [Compound 28, (2-(4-isopropylpiperazin-1-yl)benzo[d]oxazol-6-yl)carbonohydrazonoyl dicyanide] | 16 | 95.5 | – |
| Cn1c(N2C3CCC2COC3)nc2ccc(NN=C(C#N)C#N)cc21 [Compound 34, (2-(3-oxa-8-azabicyclo[3.2.1]octan-8-yl)-1-methyl-1H-benzo[d]imidazol-6-yl)carbonohydrazonoyl dicyanide] | 12 | 85.8 | – |
| N#CC(C#N)=NNc1ccc2nc(N3CCOCC3)oc2c1 [Compound 4, (2-morpholinobenzo[d]oxazol-6-yl)carbonohydrazonoyl dicyanide] | 56 | 86.8 | – |
| CC(=O)N1CCN(c2nc3ccc(NN=C(C#N)C#N)cc3o2)CC1 [Compound 31, (2-(4-acetylpiperazin-1-yl)benzo[d]oxazol-6-yl)carbonohydrazonoyl dicyanide] | 88 | 92.7 | – |
| CCn1c(N2CCOCC2)nc2cc(NN=C(C#N)C#N)ccc21 [Compound 33, (1-ethyl-2-morpholino-1H-benzo[d]imidazol-5-yl)carbonohydrazonoyl dicyanide] | 4 | 75.5 | – |
| CC1COCCN1c1nc2ccc(NN=C(C#N)C#N)cc2s1 (stereo not drawn) [Compound 13, (2-(3-methylmorpholino)benzo[d]thiazol-6-yl)carbonohydrazonoyl dicyanide] | 20 | 83 | – |
| N#CC(C#N)=NNc1ccc2nc(N3CCNCC3)oc2c1 [Compound 25, (2-(piperazin-1-yl)benzo[d]oxazol-6-yl)carbonohydrazonoyl dicyanide] | 36 | 87 | – |
| N#CC(C#N)=NNc1ccc2nc(N3CC4CCC(C3)O4)sc2c1 [Compound 23, (2-(8-oxa-3-azabicyclo[3.2.1]octan-3-yl)benzo[d]thiazol-6-yl)carbonohydrazonoyl dicyanide] | 48 | 70.6 | – |
| CC1CN(c2nc3ccc(NN=C(C#N)C#N)cc3o2)CCO1 (stereo not drawn) [Compound 15, (2-(2-methylmorpholino)benzo[d]oxazol-6-yl)carbonohydrazonoyl dicyanide] | 48 | 80.2 | – |
| CC1COCCN1c1nc2ccc(NN=C(C#N)C#N)cc2o1 (stereo not drawn) [Compound 16, (2-(3-methylmorpholino)benzo[d]oxazol-6-yl)carbonohydrazonoyl dicyanide] | 49 | 99.9 | – |
| CN1CCN(c2nc3ccc(NN=C(C#N)C#N)cc3o2)CC1 [Compound 14, (2-(4-methylpiperazin-1-yl)benzo[d]oxazol-6-yl)carbonohydrazonoyl dicyanide] | 48 | 89.7 | – |
| N#CC(C#N)=NNc1ccc2nc(NC(=O)N3CCOCC3)sc2c1 [Compound 38, (2-(morpholine-4-carboxamido)benzo[d]thiazol-6-yl)carbonohydrazonoyl dicyanide] | – | 83.9 | 68 |
| CCn1c(N2CCOCC2)nc2ccc(NN=C(C#N)C#N)cc21 [Compound 32, (1-ethyl-2-morpholino-1H-benzo[d]imidazol-6-yl)carbonohydrazonoyl dicyanide] | 12 | 78.9 | – |
| CC1CN(c2nc3ccc(NN=C(C#N)C#N)cc3o2)CC(C)O1 (stereo not drawn) [Compound 18, (2-(2,6-dimethylmorpholino)benzo[d]oxazol-6-yl)carbonohydrazonoyl dicyanide] | 128 | 98.9 | – |
| Cn1c(N2CCOCC2)nc2cc(NN=C(C#N)C#N)ccc21 [Compound 6, (1-methyl-2-morpholino-1H-benzo[d]imidazol-5-yl)carbonohydrazonoyl dicyanide] | 24 | 92.3 | – |
| N#CC(C#N)=NNc1ccc2nc(N3CCNCC3)sc2c1 [Compound 24, (2-(piperazin-1-yl)benzo[d]thiazol-6-yl)carbonohydrazonoyl dicyanide] | 168 | 65.1 | – |
| N#CC(C#N)=NNc1ccc2nc(N3C4CCC3COC4)oc2c1 [Compound 20, (2-(3-oxa-8-azabicyclo[3.2.1]octan-8-yl)benzo[d]oxazol-6-yl)carbonohydrazonoyl dicyanide] | 11 | 55.6 | – |
| CC1CN(c2nc3ccc(NN=C(C#N)C#N)cc3s2)CCO1 (stereo not drawn) [Compound 12, (2-(2-methylmorpholino)benzo[d]thiazol-6-yl)carbonohydrazonoyl dicyanide] | 32 | 74.9 | – |
| N#CC(C#N)=NNc1ccc2nc(N3CC4CCC(C3)O4)oc2c1 [Compound 26, (2-(8-oxa-3-azabicyclo[3.2.1]octan-3-yl)benzo[d]oxazol-6-yl)carbonohydrazonoyl dicyanide] | 10 | 79.1 | – |
| COC1CCN(c2nc3ccc(NN=C(C#N)C#N)cc3s2)CC1 [Compound 9, (2-(4-methoxypiperidin-1-yl)benzo[d]thiazol-6-yl)carbonohydrazonoyl dicyanide] | 36 | 68.9 | – |
| CC1CN(c2nc3ccc(NN=C(C#N)C#N)cc3s2)CC(C)O1 (stereo not drawn) [Compound 10, (2-(2,6-dimethylmorpholino)benzo[d]thiazol-6-yl)carbonohydrazonoyl dicyanide] | 24 | 68.4 | – |
| N#CC(C#N)=NNc1ccc2sc(N3CCOCC3)nc2c1 [Compound 1, (2-morpholinobenzo[d]thiazol-5-yl)carbonohydrazonoyl dicyanide] | 12 | 80.2 | – |

Reference: patent EP4737445A1, “NOVEL SATURATED HETEROCYCLE-SUBSTITUTED HETEROARYL-CARBONOHYDRAZONOYL DICYANIDE COMPOUND AND USE THEREOF” (Korea Institute of Science and Technology, priority 2023, dated 2025)
